Measured values reported in PubChem BioAssay (NCI).
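Exposure lasted 48 hours, with cells grown in 96-well plates and compounds tested at five concentrations. TGI: total growth inhibition.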

Legend:
Experiment in all cases: NCI tumour cell line growth inhibition, 48 h
T-47D breast = system: T-47D breast
MDA-MB-435 = system: MDA-MB-435
TK-10 renal = system: TK-10 renal
HS 578T breast = system: HS 578T breast
SK-MEL-5 melanoma = system: SK-MEL-5 melanoma
HCC-2998 colon = system: HCC-2998 colon
IGROV1 ovarian = system: IGROV1 ovarian
OVCAR-5 ovarian = system: OVCAR-5 ovarian
OVCAR-3 ovarian = system: OVCAR-3 ovarian
SN12C renal = system: SN12C renal
ACHN renal = system: ACHN renal
SR leukemia = system: SR leukemia
SF-295 CNS = system: SF-295 CNS
NCI-H226 lung = system: NCI-H226 lung
NCI-H522 lung = system: NCI-H522 lung
M14 melanoma = system: M14 melanoma
PC-3 prostate = system: PC-3 prostate
LOX IMVI melanoma = system: LOX IMVI melanoma
UACC-62 melanoma = system: UACC-62 melanoma
DU-145 prostate = system: DU-145 prostate
COLO 205 colon = system: COLO 205 colon
HCT-15 colon = system: HCT-15 colon
HOP-92 NSCLC = system: HOP-92 NSCLC
OVCAR-4 ovarian = system: OVCAR-4 ovarian
SNB-75 CNS = system: SNB-75 CNS
OVCAR-8 ovarian = system: OVCAR-8 ovarian
CCRF-CEM leukemia = system: CCRF-CEM leukemia
KM12 colon = system: KM12 colon
HOP-62 NSCLC = system: HOP-62 NSCLC
HCT-116 colon = system: HCT-116 colon
UO-31 renal = system: UO-31 renal
SK-OV-3 ovarian = system: SK-OV-3 ovarian
A549 NSCLC = system: A549 NSCLC
SF-539 CNS = system: SF-539 CNS
MDA-MB-231 breast = system: MDA-MB-231 breast
HL-60(TB) leukemia = system: HL-60(TB) leukemia
SNB-19 CNS = system: SNB-19 CNS
U251 CNS = system: U251 CNS
MOLT-4 leukemia = system: MOLT-4 leukemia
MALME-3M melanoma = system: MALME-3M melanoma
A498 renal = system: A498 renal
HT29 colon = system: HT29 colon
786-0 renal = system: 786-0 renal
EKVX NSCLC = system: EKVX NSCLC
MDA-N = system: MDA-N
SK-MEL-28 melanoma = system: SK-MEL-28 melanoma
RPMI-8226 leukemia = system: RPMI-8226 leukemia
NCI-H460 lung = system: NCI-H460 lung
SW-620 colon = system: SW-620 colon
CAKI-1 renal = system: CAKI-1 renal
NCI/ADR-RES ovarian = system: NCI/ADR-RES ovarian
NCI-H23 lung = system: NCI-H23 lung
RXF 393 renal = system: RXF 393 renal
K-562 leukemia = system: K-562 leukemia
BT-549 breast = system: BT-549 breast
MCF7 breast = system: MCF7 breast
UACC-257 melanoma = system: UACC-257 melanoma
SF-268 CNS = system: SF-268 CNS
SK-MEL-2 melanoma = system: SK-MEL-2 melanoma

## CN(C)/C=C/c1nnnn1-c1ccc(I)cc1
T-47D breast
  TGI: 44 µM
MDA-MB-435
  TGI: 60.7 µM
TK-10 renal
  TGI: 87.1 µM
HS 578T breast
  TGI: 45.2 µM
SK-MEL-5 melanoma
  TGI: 33 µM
HCC-2998 colon
  TGI: > 100 µM
IGROV1 ovarian
  TGI: 38 µM
OVCAR-5 ovarian
  TGI: 56.4 µM
OVCAR-3 ovarian
  TGI: 54.5 µM
SN12C renal
  TGI: > 100 µM
ACHN renal
  TGI: 63.1 µM
SR leukemia
  TGI: 41.6 µM
SF-295 CNS
  TGI: > 100 µM
NCI-H226 lung
  TGI: 56.9 µM
NCI-H522 lung
  TGI: 68.8 µM
M14 melanoma
  TGI: 40.6 µM
PC-3 prostate
  TGI: 46.2 µM
LOX IMVI melanoma
  TGI: 41.1 µM
UACC-62 melanoma
  TGI: 31.1 µM
DU-145 prostate
  TGI: 74.5 µM
COLO 205 colon
  TGI: > 100 µM
HCT-15 colon
  TGI: 54.4 µM
HOP-92 NSCLC
  TGI: 34.7 µM
OVCAR-4 ovarian
  TGI: 66 µM
SNB-75 CNS
  TGI: 32.2 µM
OVCAR-8 ovarian
  TGI: 72.2 µM
CCRF-CEM leukemia
  TGI: 25.9 µM
KM12 colon
  TGI: 36.7 µM
HOP-62 NSCLC
  TGI: > 100 µM
HCT-116 colon
  TGI: 23.5 µM
UO-31 renal
  TGI: 39.1 µM
SK-OV-3 ovarian
  TGI: 53.3 µM
A549 NSCLC
  TGI: > 100 µM
SF-539 CNS
  TGI: 42.5 µM
MDA-MB-231 breast
  TGI: 40.9 µM
HL-60(TB) leukemia
  TGI: 25.7 µM
SNB-19 CNS
  TGI: 59.2 µM
U251 CNS
  TGI: 34.9 µM
MOLT-4 leukemia
  TGI: 34.1 µM
MALME-3M melanoma
  TGI: 44.7 µM
A498 renal
  TGI: > 100 µM
HT29 colon
  TGI: 59.2 µM
786-0 renal
  TGI: > 100 µM
EKVX NSCLC
  TGI: 51.3 µM
MDA-N
  TGI: 74.2 µM
SK-MEL-28 melanoma
  TGI: 65.7 µM
RPMI-8226 leukemia
  TGI: 46.5 µM
NCI-H460 lung
  TGI: > 100 µM
SW-620 colon
  TGI: 50.6 µM
CAKI-1 renal
  TGI: 50.6 µM
NCI/ADR-RES ovarian
  TGI: 63.5 µM
NCI-H23 lung
  TGI: 56.1 µM
RXF 393 renal
  TGI: 59.6 µM
K-562 leukemia
  TGI: 44.5 µM
BT-549 breast
  TGI: 92 µM
MCF7 breast
  TGI: 65 µM
UACC-257 melanoma
  TGI: 67.5 µM
SF-268 CNS
  TGI: 51 µM

## C/C1=C\CC/C(C)=C/C=C(/C(C)C)CC/C(C(=O)O)=C/CC1
T-47D breast
  TGI: 75.6 µM
MDA-MB-435
  TGI: > 100 µM
TK-10 renal
  TGI: > 100 µM
HS 578T breast
  TGI: > 100 µM
SK-MEL-5 melanoma
  TGI: > 100 µM
HCC-2998 colon
  TGI: > 100 µM
IGROV1 ovarian
  TGI: > 100 µM
OVCAR-5 ovarian
  TGI: > 100 µM
OVCAR-3 ovarian
  TGI: 59.5 µM
SN12C renal
  TGI: > 100 µM
ACHN renal
  TGI: > 100 µM
SR leukemia
  TGI: > 100 µM
SF-295 CNS
  TGI: 78.3 µM
NCI-H226 lung
  TGI: > 100 µM
NCI-H522 lung
  TGI: > 100 µM
M14 melanoma
  TGI: > 100 µM
PC-3 prostate
  TGI: > 100 µM
LOX IMVI melanoma
  TGI: > 100 µM
UACC-62 melanoma
  TGI: > 100 µM
DU-145 prostate
  TGI: > 100 µM
COLO 205 colon
  TGI: 43.2 µM
HCT-15 colon
  TGI: > 100 µM
HOP-92 NSCLC
  TGI: > 100 µM
OVCAR-4 ovarian
  TGI: > 100 µM
SNB-75 CNS
  TGI: > 100 µM
OVCAR-8 ovarian
  TGI: > 100 µM
CCRF-CEM leukemia
  TGI: > 100 µM
KM12 colon
  TGI: > 100 µM
HOP-62 NSCLC
  TGI: > 100 µM
HCT-116 colon
  TGI: > 100 µM
UO-31 renal
  TGI: > 100 µM
SK-OV-3 ovarian
  TGI: 98.2 µM
A549 NSCLC
  TGI: > 100 µM
SF-539 CNS
  TGI: > 100 µM
MDA-MB-231 breast
  TGI: > 100 µM
HL-60(TB) leukemia
  TGI: > 100 µM
SNB-19 CNS
  TGI: > 100 µM
U251 CNS
  TGI: > 100 µM
MOLT-4 leukemia
  TGI: > 100 µM
MALME-3M melanoma
  TGI: > 100 µM
A498 renal
  TGI: 75.1 µM
HT29 colon
  TGI: > 100 µM
786-0 renal
  TGI: > 100 µM
EKVX NSCLC
  TGI: > 100 µM
MDA-N
  TGI: > 100 µM
SK-MEL-28 melanoma
  TGI: > 100 µM
RPMI-8226 leukemia
  TGI: 62 µM
NCI-H460 lung
  TGI: > 100 µM
SW-620 colon
  TGI: > 100 µM
CAKI-1 renal
  TGI: > 100 µM
NCI/ADR-RES ovarian
  TGI: > 100 µM
NCI-H23 lung
  TGI: > 100 µM
SK-MEL-2 melanoma
  TGI: 62.2 µM
RXF 393 renal
  TGI: > 100 µM
K-562 leukemia
  TGI: > 100 µM
BT-549 breast
  TGI: > 100 µM
MCF7 breast
  TGI: > 100 µM
UACC-257 melanoma
  TGI: > 100 µM
SF-268 CNS
  TGI: > 100 µM
